Source: the NIST ThermoML archive (doi:10.1021/je060271a)
± gives the expanded uncertainty stated by the source.

Settings: 323.15 K, Liquid, Vibrating tube method

CCCC(=O)OCC(COC(=O)CCC)(COC(=O)CCC)COC(=O)CCC [pentaerythritol tetrabutyrate]
Settings	mass density [kg/m3]
6544.6 kPa	1029.7 ± 1.2
6573.1 kPa	1029.6 ± 1.2
6601.4 kPa	1029.8 ± 1.2
6630.4 kPa	1029.8 ± 1.2
6664.6 kPa	1029.8 ± 1.2
6693.3 kPa	1029.7 ± 1.2
6722.9 kPa	1029.8 ± 1.2
6752.8 kPa	1029.7 ± 1.2
6788.3 kPa	1029.8 ± 1.2
6819.1 kPa	1029.9 ± 1.2
6850.5 kPa	1029.9 ± 1.2
6881.6 kPa	1030 ± 1.2
6918.6 kPa	1030 ± 1.2
6950.2 kPa	1029.9 ± 1.2
6982.9 kPa	1030 ± 1.2
7021.5 kPa	1030 ± 1.2
7051.8 kPa	1029.9 ± 1.2
7078.5 kPa	1030 ± 1.2
7111.5 kPa	1030.1 ± 1.2
7138.8 kPa	1030.1 ± 1.2
7165.9 kPa	1030.2 ± 1.2
7198.9 kPa	1030.1 ± 1.2
7227.1 kPa	1030.2 ± 1.2
7255.4 kPa	1030.1 ± 1.2
7284.6 kPa	1030.2 ± 1.2
7319.5 kPa	1030.1 ± 1.2
7348.8 kPa	1030.3 ± 1.2
7378.7 kPa	1030.3 ± 1.2
7408.9 kPa	1030.2 ± 1.2
7446.2 kPa	1030.3 ± 1.2
7476.6 kPa	1030.3 ± 1.2
7507.3 kPa	1030.3 ± 1.2
7538.2 kPa	1030.3 ± 1.2
7569.8 kPa	1030.5 ± 1.2
7607.4 kPa	1030.5 ± 1.2
7638.7 kPa	1030.6 ± 1.2
7671.1 kPa	1030.6 ± 1.2
7709.5 kPa	1030.4 ± 1.2
7742.2 kPa	1030.6 ± 1.2
7775.2 kPa	1030.6 ± 1.2
7809.6 kPa	1030.6 ± 1.2
7843.9 kPa	1030.6 ± 1.2
7885.3 kPa	1030.6 ± 1.2
7920.5 kPa	1030.6 ± 1.2
7953.8 kPa	1030.7 ± 1.2
7983 kPa	1030.8 ± 1.2
8018.4 kPa	1030.7 ± 1.2
8049.1 kPa	1030.6 ± 1.2
8080.2 kPa	1030.7 ± 1.2
8117.6 kPa	1030.9 ± 1.2
8149.2 kPa	1030.7 ± 1.2
8176.4 kPa	1030.7 ± 1.2
8203 kPa	1030.9 ± 1.2
8233.4 kPa	1031 ± 1.2
8258.9 kPa	1030.8 ± 1.2
8285.5 kPa	1030.9 ± 1.2
8312 kPa	1031.1 ± 1.2
8343.3 kPa	1030.9 ± 1.2
8369.3 kPa	1030.9 ± 1.2
8401.7 kPa	1031.1 ± 1.2
8428.3 kPa	1031.1 ± 1.2
8455.7 kPa	1031 ± 1.2
8482.6 kPa	1031.1 ± 1.2
8515.8 kPa	1031.2 ± 1.2
8543.4 kPa	1031.1 ± 1.2
8571.8 kPa	1031.1 ± 1.2
8605.3 kPa	1031.2 ± 1.2
8634.6 kPa	1031.2 ± 1.2
8664.9 kPa	1031.3 ± 1.2
8693.6 kPa	1031.2 ± 1.2
8722 kPa	1031.2 ± 1.2
8757 kPa	1031.2 ± 1.2
8785.7 kPa	1031.2 ± 1.2
8815.3 kPa	1031.3 ± 1.2
8851 kPa	1031.3 ± 1.2
8880.8 kPa	1031.3 ± 1.2
8916.7 kPa	1031.4 ± 1.2
8947.2 kPa	1031.4 ± 1.2
8977.7 kPa	1031.5 ± 1.2
9015.1 kPa	1031.4 ± 1.2
9048.4 kPa	1031.5 ± 1.2
9079.8 kPa	1031.5 ± 1.2
9105.3 kPa	1031.6 ± 1.2
9137.4 kPa	1031.5 ± 1.2
9181.7 kPa	1031.6 ± 1.2
9214.1 kPa	1031.5 ± 1.2
9239.9 kPa	1031.6 ± 1.2
9278.9 kPa	1031.6 ± 1.2
9312 kPa	1031.6 ± 1.2
9352.1 kPa	1031.7 ± 1.2
9391.1 kPa	1031.5 ± 1.2
9424.9 kPa	1031.7 ± 1.2
9459.7 kPa	1031.8 ± 1.2
9501.9 kPa	1031.8 ± 1.2
9536.7 kPa	1031.9 ± 1.2
9571.9 kPa	1031.8 ± 1.2
9607.4 kPa	1031.8 ± 1.2
9650.6 kPa	1031.8 ± 1.2
9687.7 kPa	1031.8 ± 1.2
9732.6 kPa	1032 ± 1.2
9765 kPa	1032 ± 1.2
9791.2 kPa	1032 ± 1.2
9822.2 kPa	1031.9 ± 1.2
9848.9 kPa	1032.1 ± 1.2
9875.6 kPa	1032.1 ± 1.2
9907.5 kPa	1032 ± 1.2
9935 kPa	1032 ± 1.2
9961.9 kPa	1032.1 ± 1.2
9989 kPa	1032.1 ± 1.2
10021 kPa	1032.1 ± 1.2
10048 kPa	1032.1 ± 1.2
10082 kPa	1032.2 ± 1.2
10110 kPa	1032.1 ± 1.2
10138 kPa	1032.2 ± 1.2
10166 kPa	1032.2 ± 1.2
10200 kPa	1032.2 ± 1.2
10228 kPa	1032.2 ± 1.2
10262 kPa	1032.2 ± 1.2
10292 kPa	1032.4 ± 1.2
10321 kPa	1032.3 ± 1.2
10356 kPa	1032.4 ± 1.2
10385 kPa	1032.5 ± 1.2
10415 kPa	1032.5 ± 1.2
10445 kPa	1032.5 ± 1.2
10481 kPa	1032.4 ± 1.2
10512 kPa	1032.5 ± 1.2
10542 kPa	1032.4 ± 1.2
10579 kPa	1032.5 ± 1.2
10610 kPa	1032.6 ± 1.2
10641 kPa	1032.6 ± 1.2
10672 kPa	1032.6 ± 1.2
10710 kPa	1032.5 ± 1.2
10742 kPa	1032.6 ± 1.2
10774 kPa	1032.6 ± 1.2
10806 kPa	1032.7 ± 1.2
10845 kPa	1032.8 ± 1.2
10877 kPa	1032.7 ± 1.2
10916 kPa	1032.7 ± 1.2
10948 kPa	1032.7 ± 1.2
10982 kPa	1032.7 ± 1.2
11022 kPa	1032.7 ± 1.2
11055 kPa	1032.8 ± 1.2
11089 kPa	1032.8 ± 1.2
11123 kPa	1032.9 ± 1.2
11165 kPa	1032.9 ± 1.2
11200 kPa	1032.8 ± 1.2
11242 kPa	1032.9 ± 1.2
11279 kPa	1033 ± 1.2
11316 kPa	1033 ± 1.2
11352 kPa	1033 ± 1.2
11384 kPa	1033.1 ± 1.2
11409 kPa	1033 ± 1.2
11434 kPa	1033.1 ± 1.2
11464 kPa	1033 ± 1.2
11489 kPa	1033.1 ± 1.2
11520 kPa	1033.2 ± 1.2
11545 kPa	1033.1 ± 1.2
11573 kPa	1033.1 ± 1.2
11598 kPa	1033.2 ± 1.2
11625 kPa	1033.2 ± 1.2
11655 kPa	1033.2 ± 1.2
11681 kPa	1033.3 ± 1.2
11713 kPa	1033.3 ± 1.2
11740 kPa	1033.2 ± 1.2
11766 kPa	1033.3 ± 1.2
11793 kPa	1033.3 ± 1.2
11825 kPa	1033.4 ± 1.2
11853 kPa	1033.3 ± 1.2
11880 kPa	1033.5 ± 1.2
11914 kPa	1033.4 ± 1.2
11944 kPa	1033.4 ± 1.2
11971 kPa	1033.4 ± 1.2
11999 kPa	1033.4 ± 1.2
12033 kPa	1033.4 ± 1.2
12061 kPa	1033.5 ± 1.2
12089 kPa	1033.5 ± 1.2
12122 kPa	1033.6 ± 1.2
12151 kPa	1033.6 ± 1.2
12180 kPa	1033.6 ± 1.2
12214 kPa	1033.5 ± 1.2
12243 kPa	1033.7 ± 1.2
12272 kPa	1033.6 ± 1.2
12367 kPa	1033.8 ± 1.2
12397 kPa	1033.7 ± 1.2
12432 kPa	1033.7 ± 1.2
12462 kPa	1033.8 ± 1.2
12499 kPa	1033.8 ± 1.2
12530 kPa	1033.9 ± 1.2
12555 kPa	1033.8 ± 1.2
12591 kPa	1033.9 ± 1.2
12623 kPa	1033.9 ± 1.2
12660 kPa	1033.9 ± 1.2
12691 kPa	1033.9 ± 1.2
12724 kPa	1033.9 ± 1.2
12762 kPa	1033.9 ± 1.2
12794 kPa	1034.1 ± 1.2
12826 kPa	1033.9 ± 1.2
12858 kPa	1034 ± 1.2
12897 kPa	1034.1 ± 1.2
12930 kPa	1034.1 ± 1.2
12969 kPa	1034.1 ± 1.2
13003 kPa	1034.2 ± 1.2
13037 kPa	1034.3 ± 1.2
13072 kPa	1034.3 ± 1.2
13115 kPa	1034.3 ± 1.2
13152 kPa	1034.3 ± 1.2
13184 kPa	1034.2 ± 1.2
13211 kPa	1034.3 ± 1.2
13233 kPa	1034.3 ± 1.2
13255 kPa	1034.4 ± 1.2
13281 kPa	1034.4 ± 1.2
13303 kPa	1034.4 ± 1.2
13326 kPa	1034.4 ± 1.2
13352 kPa	1034.3 ± 1.2
13375 kPa	1034.4 ± 1.2
13398 kPa	1034.5 ± 1.2
13420 kPa	1034.5 ± 1.2
13447 kPa	1034.5 ± 1.2
13470 kPa	1034.5 ± 1.2
13493 kPa	1034.5 ± 1.2
13520 kPa	1034.5 ± 1.2
13543 kPa	1034.6 ± 1.2
13570 kPa	1034.5 ± 1.2
13593 kPa	1034.6 ± 1.2
13616 kPa	1034.6 ± 1.2
13639 kPa	1034.7 ± 1.2
13667 kPa	1034.5 ± 1.2
13690 kPa	1034.6 ± 1.2
13718 kPa	1034.6 ± 1.2
13742 kPa	1034.6 ± 1.2
13766 kPa	1034.7 ± 1.2
13794 kPa	1034.6 ± 1.2
13819 kPa	1034.6 ± 1.2
13843 kPa	1034.7 ± 1.2
13867 kPa	1034.7 ± 1.2
13896 kPa	1034.8 ± 1.2
13920 kPa	1034.7 ± 1.2
13945 kPa	1034.8 ± 1.2
13974 kPa	1034.9 ± 1.2
13998 kPa	1034.8 ± 1.2
14027 kPa	1034.8 ± 1.2
14052 kPa	1034.9 ± 1.2
14215 kPa	1035 ± 1.2
14240 kPa	1034.9 ± 1.2
14265 kPa	1034.9 ± 1.2
14296 kPa	1035.1 ± 1.2
14322 kPa	1035 ± 1.2
14348 kPa	1035.1 ± 1.2
14379 kPa	1035 ± 1.2
14405 kPa	1035 ± 1.2
14431 kPa	1035 ± 1.2
14462 kPa	1035.1 ± 1.2
14490 kPa	1035 ± 1.2
14518 kPa	1035.2 ± 1.2
14544 kPa	1035.1 ± 1.2
14571 kPa	1035.2 ± 1.2
14603 kPa	1035.1 ± 1.2
14630 kPa	1035.2 ± 1.2
14658 kPa	1035.3 ± 1.2
14690 kPa	1035.3 ± 1.2
14717 kPa	1035.3 ± 1.2
14749 kPa	1035.4 ± 1.2
14805 kPa	1035.4 ± 1.2
14833 kPa	1035.3 ± 1.2
14867 kPa	1035.3 ± 1.2
14895 kPa	1035.4 ± 1.2
14923 kPa	1035.5 ± 1.2
14957 kPa	1035.4 ± 1.2
14986 kPa	1035.4 ± 1.2
15014 kPa	1035.5 ± 1.2
15048 kPa	1035.6 ± 1.2
15077 kPa	1035.6 ± 1.2
15105 kPa	1035.6 ± 1.2
15140 kPa	1035.6 ± 1.2
15169 kPa	1035.7 ± 1.2
15199 kPa	1035.6 ± 1.2
15229 kPa	1035.5 ± 1.2
15265 kPa	1035.6 ± 1.2
15294 kPa	1035.6 ± 1.2
15325 kPa	1035.7 ± 1.2
15360 kPa	1035.7 ± 1.2
15390 kPa	1035.7 ± 1.2
15421 kPa	1035.8 ± 1.2
15456 kPa	1035.8 ± 1.2
15487 kPa	1035.8 ± 1.2
15517 kPa	1035.8 ± 1.2
15554 kPa	1035.8 ± 1.2
15585 kPa	1035.9 ± 1.2
15616 kPa	1035.9 ± 1.2
15653 kPa	1036 ± 1.2
15685 kPa	1035.9 ± 1.2
15716 kPa	1036 ± 1.2
15748 kPa	1036 ± 1.2
